Laboratory results taken from patent publication US20200390100A1, “SUBSTITUTED N-HETEROCYCLYL- AND N-HETEROARYL-TETRAHYDROPYRIMIDINONES AND THE SALTS THEREOF, AND THE USE OF SAME AS HERBICIDAL ACTIVE SUBSTANCES” (Bayer Aktiengesellschaft, priority 2017, published 2020).

Key:
[1] = test system: Abutilon theophrasti; assay: Herbicidal pre-emergence action (Part 2), 1280 g/ha; type: in vivo; details: application rate 1280 g/ha, scored visually after about 3 weeks, Table D5
In short: (§1)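 Visual percent activity, scored roughly 3 weeks after treatment relative to untreated pots (100% meaning plants died), is reported. Compounds as wettable powders or emulsion concentrates with 0.5% additive were applied to the soil surface over freshly sown seeds at 600 L water/ha.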

[2] = test system: Setaria viridis; assay: as above; type: in vivo; details: application rate 1280 g/ha, scored visually after about 3 weeks, Table D4
In short: as §1

[3] = test system: Poa annua; assay: as above; type: in vivo; details: application rate 1280 g/ha, scored visually after about 3 weeks, Table D3
In short: as §1

[4] = test system: Stellaria media; assay: as above; type: in vivo; details: application rate 1280 g/ha, scored visually after about 3 weeks, Table D8
In short: as §1

[5] = test system: Matricaria inodora; assay: as above; type: in vivo; details: application rate 1280 g/ha, scored visually after about 3 weeks, Table D7
In short: as §1

[6] = test system: Amaranthus retroflexus; assay: as above; type: in vivo; details: application rate 1280 g/ha, scored visually after about 3 weeks, Table D6
In short: as §1

[7] = test system: Abutilon theophrasti; assay: Herbicidal post-emergence action (Part 2), 1280 g/ha; type: in vivo; details: application rate 1280 g/ha, rated visually after about 3 weeks, Table C4
In short: (§2)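 Post-emergence greenhouse test: one-leaf-stage weeds (2–3 wk after sowing, sandy loam) sprayed onto green parts; WP/EC in water + 0.5% additive, 600 L/ha. Visual rating ~3 wk, 0–100% vs untreated.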

[8] = test system: Setaria viridis; assay: as above; type: in vivo; details: application rate 1280 g/ha, rated visually after about 3 weeks, Table C3
In short: as §2

[9] = test system: Echinochloa crus-galli; assay: as above; type: in vivo; details: post-emergence (Part 2), application rate 1280 g/ha, rated visually after about 3 weeks vs untreated controls
In short: as §2

[10] = test system: Poa annua; assay: as above; type: in vivo; details: application rate 1280 g/ha, rated visually after about 3 weeks, Table C2
In short: as §2

[11] = test system: Stellaria media; assay: as above; type: in vivo; details: application rate 1280 g/ha, rated visually after about 3 weeks, Table C7
In short: as §2

[12] = test system: Matricaria inodora; assay: as above; type: in vivo; details: application rate 1280 g/ha, rated visually after about 3 weeks, Table C6
In short: as §2

[13] = test system: Amaranthus retroflexus; assay: as above; type: in vivo; details: application rate 1280 g/ha, rated visually after about 3 weeks, Table C5
In short: as §2

[14] = test system: Polygonum convolvulus; assay: Pre-emergence herbicidal action, greenhouse, 320 g/ha; type: in vivo; details: application rate 320 g/ha, scored visually after about 3 weeks vs untreated controls
In short: (§3)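 Soil-surface application onto covered seeds; WP or EC formulation with 0.5% additive in aqueous spray; visual rating at ~3 weeks, 0–100% vs untreated plants.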

[15] = test system: Veronica persica; assay: as above; type: in vivo; details: application rate 320 g/ha, Table B13
In short: as §3

[16] = test system: Hordeum murinum; assay: as above; type: in vivo; details: application rate 320 g/ha, Table B14
In short: as §3

[17] = test system: Abutilon theophrasti; assay: as above; type: in vivo; details: application rate 320 g/ha, scored visually after about 3 weeks vs untreated controls
In short: as §3

[18] = test system: Pharbitis purpurea; assay: as above; type: in vivo; details: application rate 320 g/ha, Table B12
In short: as §3

[19] = test system: Viola tricolor; assay: as above; type: in vivo; details: application rate 320 g/ha, Table B8
In short: as §3

[20] = test system: Setaria viridis; assay: as above; type: in vivo; details: application rate 320 g/ha, Table B11
In short: as §3

[21] = test system: Alopecurus myosuroides; assay: as above; type: in vivo; details: application rate 320 g/ha, scored visually after about 3 weeks vs untreated controls
In short: as §3

[22] = test system: Stellaria media; assay: as above; type: in vivo; details: application rate 320 g/ha, scored visually after about 3 weeks vs untreated controls
In short: as §3

[23] = test system: Matricaria inodora; assay: as above; type: in vivo; details: application rate 320 g/ha, scored visually after about 3 weeks vs untreated controls
In short: as §3

[24] = test system: Amaranthus retroflexus; assay: as above; type: in vivo; details: application rate 320 g/ha, scored visually after about 3 weeks vs untreated controls
In short: as §3

[25] = biological target: T1, photosystem II (PS II) (Spinacia oleracea, UniProt P69560); assay: Measurement of PS II activity in thylakoid membranes (DCPIP reduction); type: biochemical, spinach; details: PS II activity in spinach thylakoid membranes, Table E1; read-out: Effect
T1 construct: the chloroplasts were osmotically ruptured and the thylakoid membranes were then obtained by centrifugation; from tissue; host or cells: fresh spinach leaves; thylakoid membrane preparation from isolated chloroplasts
In short: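 Thylakoid membranes from osmotically ruptured spinach chloroplasts in 50 mM phosphate pH 6.8, 10 mM KCl; compounds added from 100 μM DMSO solution (2.5% DMSO final), 120 μM DCPIP final. DCPIP reduction under light tracked as absorbance decrease at 595 nm over 10 min at 22 °C; % inhibition binned, metribuzin as plate standard.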

[26] = test system: Polygonum convolvulus; assay: Post-emergence herbicidal action, greenhouse, 320 g/ha; type: in vivo; details: application rate 320 g/ha, rated visually after about 3 weeks vs untreated controls
In short: (§4)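 Plants treated post-emergence at the one-leaf stage, 2 to 3 weeks after sowing in sandy loam, with WP or EC formulations plus 0.5% additive at 320 g/ha. Visual rating about 3 weeks later versus untreated controls (100% = dead, 0% = like control).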

[27] = test system: Abutilon theophrasti; assay: as above; type: in vivo; details: application rate 320 g/ha, rated visually after about 3 weeks vs untreated controls
In short: as §4

[28] = test system: Pharbitis purpurea; assay: as above; type: in vivo; details: application rate 320 g/ha, rated visually after about 3 weeks vs untreated controls
In short: as §4

[29] = test system: Viola tricolor; assay: as above; type: in vivo; details: application rate 320 g/ha, rated visually after about 3 weeks vs untreated controls
In short: as §4

[30] = test system: Setaria viridis; assay: as above; type: in vivo; details: application rate 320 g/ha, rated visually after about 3 weeks vs untreated controls
In short: as §4

[31] = test system: Echinochloa crus-galli; assay: as above; type: in vivo; details: application rate 320 g/ha, rated visually after about 3 weeks vs untreated controls
In short: as §4

[32] = test system: Alopecurus myosuroides; assay: as above; type: in vivo; details: application rate 320 g/ha, rated visually after about 3 weeks vs untreated controls
In short: as §4

[33] = test system: Stellaria media; assay: as above; type: in vivo; details: application rate 320 g/ha, rated visually after about 3 weeks vs untreated controls
In short: as §4

[34] = test system: Amaranthus retroflexus; assay: as above; type: in vivo; details: application rate 320 g/ha, rated visually after about 3 weeks vs untreated controls
In short: as §4

CN1CCC(O)N(c2cc(C(C)(C)C)n(C)n2)C1=O (stereo not shown) [I.1-315]
100%: Abutilon theophrasti [1] | Setaria viridis [2] | Stellaria media [4] | Matricaria inodora [5] | Amaranthus retroflexus [6] | Abutilon theophrasti [7] | Setaria viridis [8] | Echinochloa crus-galli [9] | Poa Annua [10] | Stellaria media [11] | Amaranthus retroflexus [13]
90%: Poa Annua [3] | Matricaria inodora [12]

CC(=O)OC1CCN(C)C(=O)N1c1cc(C(C)(C)C)on1 (stereo not shown) [I.2-162, 3-(5-tert-Butyl-1,2-oxazol-3-yl)-1-methyl-2-oxohexahydropyrimidin-4-yl Acetate]
90%: Veronica persica (efficacy in %) [15] | Setaria viridis (efficacy in %) [20] | Alopecurus myosuroides (efficacy in %) [21]
100%: Polygonum convolvulus (efficacy in %) [14] | Abutilon theophrasti (efficacy in %) [17] | Pharbitis purpurea (efficacy in %) [18] | Viola tricolor (efficacy in %) [19] | Stellaria media (efficacy in %) [22] | Matricaria inodora (efficacy in %) [23] | Amaranthus retroflexus (efficacy in %) [24] | Polygonum convolvulus (efficacy in %) [26] | Abutilon theophrasti (efficacy in %) [27] | Pharbitis purpurea (efficacy in %) [28] | Viola tricolor (efficacy in %) [29] | Setaria viridis (efficacy in %) [30] | Stellaria media (efficacy in %) [33] | Amaranthus retroflexus (efficacy in %) [34]
80%: Hordeum murinum (efficacy in %) [16] | Echinochloa crus-galli (efficacy in %) [31] | Alopecurus myosuroides (efficacy in %) [32]
70 to 90%: inhibition at 100 µM [25]
